Experimental data from US4851209A, “Diagnostic procedures using radio labeled sucralfate and derivatives or precursors thereof” (The Regents of the University of California, priority 1985, dated 1989).

Legend:
[1] = test system: duodenal and gastric ulcers, gastric erosions, mucosa; conditions: cited from earlier work
duodenal ulcers = conditions: several clinical trials; cited from earlier work
pepsin = conditions: cited from earlier work
[2] = stability of tagged material in solution; format: physicochemical; conditions: one gram per 10 cc of normal saline
From the text: The tagged material was stable in a solution comprising one gram per 10 cc of normal saline. The solution was given orally as a 10 cc dose. […] A good analogy would be the stars at night vs. the stars during the day. The stars are there in both instances. However, the sky is so bright during the day that star-light is simply lost in the background. […] The potassium salt used for imaging ulcers in Example III can be replaced by other cations compatible in the human body including alkali metal and alkaline earth metal cations such as sodium and calcium.

Row | Substance | binding to ulcerated areas in the upper G. I. tract ([1]; FDA approved drug) | duration of action ([1]; animal data) | binding to uninjured mucosa ([1]; compared with defective mucosa) | binding to duodenal and gastric ulcers and to gastric erosions ([1]; erosions produced by ethanol and anti-inflammatory drugs) | safety and efficacy in healing duodenal ulcers (duodenal ulcers) | inhibition of the action of pepsin (pepsin) | stability in solution [2]
1 | Sucralfate | bind selectively to ulcerated areas | sustained | to a much lesser extent | binds to duodenal and gastric ulcers and to gastric erosions | shown the safety and efficacy | inhibits the action of pepsin | 
2 | potassium sucrose sulfate [Tc-99m labeled potassium sucrose sulfate] |  |  |  |  |  |  | stable
